Measurements taken from patent publication US20050260568A1, “Hepatitis C virus assays” (priority 2004, published 2005).

Columns and labels:
HCV replicon = HCV replicon FRET assay (NS3 protease activity as indirect measure of HCV RNA replication); assay type: cell-based, Hepatitis C virus; conditions: FIG. 7A IFN-α control titration 1000 to 1 units
Text: To perform the HCV FRET screening assay, 96-well cell culture plates were used. The FRET peptide (Anaspec, Inc.) (Taliani et al., Anal. Biochem. 240:60-67 (1996), expressly incorporated by reference in its entirety) contains a fluorescence donor, EDANS, near one end of the peptide and an acceptor, DABCYL, near the other end. The fluorescence of the peptide is quenched by intramolecular resonance energy transfer (RET) between the donor and the acceptor, but as the NS3 protease cleaves the peptide the products are released from RET quenching and the fluorescence of the donor becomes apparent. […]
Subsequent to addition of the test compounds described above (FRET Assay Preparation), at various times the plate was removed and Alamar Blue solution (Trek Diagnostics, #00-100) was added per well as a measure of cellular toxicity. After reading in a Cytoflour 4000 instrument (PE Biosystems), plates were rinsed with PBS and then used for FRET assay by the addition of 30 ul of the FRET peptide assay reagent described above (FRET Assay Preparation) per well. The plate was then placed into the Cytoflour 4000 instrument which had been set to 340 excite/490 emission, automatic mode for 20 cycles and the plate read in a kinetic mode. Typically, the signal to noise using an endpoint analysis after the reads was at least three-fold. […]

Huh-7 replicon cells = assay: Alamar Blue cytotoxicity assay; assay type: cell-based; conditions: lower concentrations of IFN-α (100, 10, 1 units)
Procedure: Subsequent to addition of the test compounds described above (FRET Assay Preparation), at various times the plate was removed and Alamar Blue solution (Trek Diagnostics, #00-100) was added per well as a measure of cellular toxicity. After reading in a Cytoflour 4000 instrument (PE Biosystems), plates were rinsed with PBS and then used for FRET assay by the addition of 30 ul of the FRET peptide assay reagent described above (FRET Assay Preparation) per well. The plate was then placed into the Cytoflour 4000 instrument which had been set to 340 excite/490 emission, automatic mode for 20 cycles and the plate read in a kinetic mode. Typically, the signal to noise using an endpoint analysis after the reads was at least three-fold.
Compound analysis was determined by quantification of the relative HCV replicon inhibition and the relative cytotoxicity values. To calculate cytotoxicity values, the average Alamar Blue fluorescence signals from the control wells in row 11 (FIG. 4) were set as 100% non-toxic. The individual signals in each of the compound test wells were then divided by the average control signal and multiplied by 100% to determine […]. To calculate the HCV replicon inhibition values, an average background value FRET signal was obtained from the two wells containing the highest amount of interferon at the end of the assay period. […]

In the case of Interferon alpha [IFN-α], the “EC50 in control samples of random compound plate (FRET)” value (HCV replicon) was “close to or slightly lower than the lowest concentration of IFN-α used” and the “cytotoxicity (Alamar Blue staining change)” value (Huh-7 replicon cells) was “no apparent Alamar Blue staining change”.
